This assay relates to A549 pERK. Kind of assay: A549-pERK, 2 h (quantitative Western, Jess). The format is cell-based. As to conditions: Homo sapiens, phospho:total ratio normalized to DMSO control. As for the experimental part:
A549 or […] cells were treated in duplicate for two hours with compounds at varying concentrations. After two hours, the cells were lysed, snap frozen, and stored at −80° C. After storage, the lysate was quantified with the Bradford assay. Before the lysates were prepared to run on the Jess, the lysates were diluted to 1 mg/mL for pERK analysis and 1.5 mg/mL pMEK analysis using quantitative Western blotting. ERK and MEK phosphorylation levels were estimated by taking the ratio of phospho-protein to total protein and normalizing to the DMSO control. The results of this study are described in Tables 14-16.

For the compound `CNS(=O)(=O)Nc1cccc(Cc2c(CNCc3cccc(C(F)(F)F)c3)c3ccc(OC(=O)N(C)C)cc3oc2=O)c1F` [Compound 59], the activity at 0.01 µM (A549, 2 h, 10 nM) worked out at 105%.
Regarding `CNS(=O)(=O)Nc1cccc(Cc2c(CC(=O)N(C)CC#N)c3ccc(OC(=O)N(C)C)cc3oc2=O)c1F` [Compound 198], the activity at 0.01 µM (A549, 2 h, 10 nM) was 109%.
As to `CNS(=O)(=O)Nc1cccc(Cc2c(CNCC(=O)N(C)CC#N)c3ccc(OC(=O)N(C)C)cc3oc2=O)c1F` [Compound 217], the activity at 0.01 µM (A549, 2 h, 10 nM) amounted to 96.7%. Where the note is “A549, 2 h”, the activity at 10 µM was determined as 11.2%.
Consider `CNS(=O)(=O)Nc1cccc(Cc2c(CN3CCN(C(C)C)CC3)c3ccc(OC(=O)N(C)C)cc3oc2=O)c1F` [Compound 62], for which the activity at 0.01 µM (A549, 2 h, 10 nM) was 73%.
Consider `CNS(=O)(=O)Nc1cccc(Cc2c(CN3CC(C)C3)c3ccc(OC(=O)N(C)C)cc3oc2=O)c1F` [Compound 142], for which the activity at 0.01 µM (A549, 2 h, 10 nM) was 94.6%.
In the case of `CNS(=O)(=O)Nc1cccc(Cc2c(CN3CC4(COC4)C3)c3ccc(OC(=O)N(C)C)cc3oc2=O)c1F` [Compound 152], the activity at 0.01 µM (A549, 2 h, 10 nM) is 70.5%.
For `CNS(=O)(=O)Nc1cccc(Cc2c(CN3CC(C#N)C3)c3ccc(OC(=O)N(C)C)cc3oc2=O)c1F` [Compound 172], under “A549, 2 h, 10 nM”, the activity at 0.01 µM was 111%.
On the same count and under the same terms, as for `CNS(=O)(=O)Nc1cccc(Cc2c(CNCc3ccco3)c3ccc(OC(=O)N(C)C)cc3oc2=O)c1F` [Compound 56], the figure is 92.9%; as for `CNS(=O)(=O)Nc1cccc(Cc2c(CC(=O)N3CCN(C)CC3)c3ccc(OC(=O)N(C)C)cc3oc2=O)c1F` [Compound 195], 113%.
As to `CNS(=O)(=O)Nc1cccc(Cc2c(CC(=O)N3CC(OC)C3)c3ccc(OC(=O)N(C)C)cc3oc2=O)c1F` [Compound 216], the activity at 0.01 µM (A549, 2 h, 10 nM) is 89.5%. The activity at 10 µM (A549, 2 h) was determined as 4.51%.
Turning to `C#CCN(C)Cc1c(Cc2cccc(NS(=O)(=O)NC)c2F)c(=O)oc2cc(OC(=O)N(C)C)ccc12` [Compound 76], the activity at 0.01 µM (A549, 2 h, 10 nM) was 62.1%.
`CNC1CN(Cc2c(Cc3cccc(NS(=O)(=O)NC)c3F)c(=O)oc3cc(OC(=O)N(C)C)ccc23)C1` [Compound 164]: for the setting “A549, 2 h, 10 nM”, the activity at 0.01 µM is 102%.
Consider `CNS(=O)(=O)Nc1cccc(Cc2c(CNCC(=O)N(C)C)c3ccc(OC(=O)N(C)C)cc3oc2=O)c1F` [Compound 57], for which the activity at 0.01 µM (A549, 2 h, 10 nM) was found to be 106%. Also, the activity at 10 µM (A549, 2 h) was 7.33%.
With `CNS(=O)(=O)Nc1cccc(Cc2c(CN3CCN(C(=O)c4ccccc4)CC3)c3ccc(OC(=O)N(C)C)cc3oc2=O)c1F` [Compound 65], the activity at 0.01 µM (A549, 2 h, 10 nM) came out at 100%.
On the same count and under the same terms, as for `CNS(=O)(=O)Nc1cccc(Cc2c(CN3CC(N(C)C)C3)c3ccc(OC(=O)N(C)C)cc3oc2=O)c1F` [Compound 154], the figure is 64%; as for `CNS(=O)(=O)Nc1cccc(Cc2c(CNCCCCO)c3ccc(OC(=O)N(C)C)cc3oc2=O)c1F` [Compound 71], 99.4%.
With `CNS(=O)(=O)Nc1cccc(Cc2c(CNc3ccn(C)n3)c3ccc(OC(=O)N(C)C)cc3oc2=O)c1F` [Compound 89], the activity at 0.01 µM (A549, 2 h, 10 nM) was determined as 83.7%.
Same read-out and setting: as for `CNS(=O)(=O)Nc1cccc(Cc2c(CNc3ccccc3)c3ccc(OC(=O)N(C)C)cc3oc2=O)c1F` [Compound 30], the figure is 54.3%.
As to `CNS(=O)(=O)Nc1nccc(Cc2c(CN3CCNCC3)c3ccc(Oc4ncccn4)cc3oc2=O)c1F` [Compound 104], under “A549, 10 nM”, the activity at 0.01 µM was determined as 77.3%.
On to `CNS(=O)(=O)Nc1cccc(Cc2c(CCNCC3CC3)c3ccc(OC(=O)N(C)C)cc3oc2=O)c1F` [Compound 186], for which the activity at 0.01 µM (A549, 2 h, 10 nM) was 80.1%. In addition, the activity at 10 µM (A549, 2 h) worked out at 0.74%.
Turning to `CNS(=O)(=O)Nc1cccc(Cc2c(CNc3ccn[nH]3)c3ccc(OC(=O)N(C)C)cc3oc2=O)c1F` [Compound 31], the activity at 0.01 µM (A549, 2 h, 10 nM) was determined as 66.7%.
For the compound `CNS(=O)(=O)Nc1cccc(Cc2c(CNC(=O)C(C)C)c3ccc(OC(=O)N(C)C)cc3oc2=O)c1F` [Compound 208], the activity at 0.01 µM (A549, 2 h, 10 nM) came out at 105%. The activity at 10 µM (A549, 2 h) came out at 23.6%.
Turning to `CNS(=O)(=O)Nc1cccc(Cc2c(CN(C)c3cccc(Cl)c3)c3ccc(OC(=O)N(C)C)cc3oc2=O)c1F` [Compound 95], under “A549, 2 h, 10 nM”, the activity at 0.01 µM came to 80.2%.
In the case of `CNS(=O)(=O)Nc1cccc(Cc2c(CNCc3ccncc3)c3ccc(OC(=O)N(C)C)cc3oc2=O)c1F` [Compound 29], the activity at 0.01 µM (A549, 2 h, 10 nM) turned out to be 96%.
With `CNS(=O)(=O)Nc1cccc(Cc2c(CNCC(=O)Nc3ccccc3)c3ccc(OC(=O)N(C)C)cc3oc2=O)c1F` [Compound 223], the activity at 0.01 µM (A549, 2 h, 10 nM) worked out at 119%. The activity at 10 µM (A549, 2 h) was determined as 3.04%.
Turning to `CNS(=O)(=O)Nc1cccc(Cc2c(CN3CCC4(CN(C)C4)C3)c3ccc(OC(=O)N(C)C)cc3oc2=O)c1F` [Compound 159], the activity at 0.01 µM (A549, 2 h, 10 nM) came to 82.7%.
The same measure, in the same setting: then `CNS(=O)(=O)Nc1nccc(Cc2c(CN(C)C)c3ccc(OC(=O)N(C)C)cc3oc2=O)c1F` [Compound 124], with 94.6%; and `CNS(=O)(=O)Nc1cccc(Cc2c(CNC(C)c3ccccc3)c3ccc(OC(=O)N(C)C)cc3oc2=O)c1F` (centres unmarked) [Compound 63], with 88%.
Turning to `C#CCNC(=O)CNCc1c(Cc2cccc(NS(=O)(=O)NC)c2F)c(=O)oc2cc(OC(=O)N(C)C)ccc12` [Compound 218], under “A549, 2 h, 10 nM”, the activity at 0.01 µM was found to be 113%. Further, the activity at 10 µM (A549, 2 h) came out at 9.46%.
`CNS(=O)(=O)Nc1cccc(Cc2c(CN3CC4CC3CN4)c3ccc(OC(=O)N(C)C)cc3oc2=O)c1F` (centres unmarked) [Compound 138]: the activity at 0.01 µM (A549, 2 h, 10 nM) worked out at 96.9%.
Take `CNS(=O)(=O)Nc1cccc(Cc2c(CN(C)C)c3ccc(OC(=S)N(C)C)cc3oc2=O)c1F` [Compound 204]: the activity at 0.01 µM (A549, 10 nM) came out at 83.4%.
On to `CN(C)C(=O)Oc1ccc2c(CN3CCC3)c(Cc3ccnc(NS(=O)(=O)C4CC4)c3F)c(=O)oc2c1` [Compound 155], for which the activity at 0.01 µM (A549, 2 h, 10 nM) was determined as 84.9%.
In the case of `CNS(=O)(=O)Nc1cccc(Cc2c(CNCC(=O)O)c3cc(Cl)c(OC(=O)N(C)C)cc3oc2=O)c1F` [Compound 133], the activity at 0.01 µM (A549, 2 h, 10 nM) came to 88.1%. The activity at 10 µM (A549, 2 h) turned out to be 23.4%.
For the compound `CNS(=O)(=O)Nc1cccc(Cc2c(CN3CCN(C4CC4)CC3)c3ccc(OC(=O)N(C)C)cc3oc2=O)c1F` [Compound 64], the activity at 0.01 µM (A549, 2 h, 10 nM) is 73%.
For the compound `CNS(=O)(=O)Nc1cccc(Cc2c(CNC(=O)c3nn[nH]n3)c3ccc(OC(=O)N(C)C)cc3oc2=O)c1F` [Compound 213], where the note is “A549, 2 h, 10 nM”, the activity at 0.01 µM stood at 100%. For the same compound, where the note is “A549, 2 h”, the activity at 10 µM is 70.1%.
As for `CCS(=O)(=O)Nc1cccc(Cc2c(CN(C)C)c3ccc(OC(=O)N(C)C)cc3oc2=O)c1F` [Compound 120], the activity at 0.01 µM (A549, 2 h, 10 nM) worked out at 77.2%.
Still for that read-out and setting: then `CNS(=O)(=O)Nc1cccc(Cc2c(CNc3ccc(OC)nc3)c3ccc(OC(=O)N(C)C)cc3oc2=O)c1F` [Compound 193], with 90.7%; and `CNS(=O)(=O)Nc1cccc(Cc2c(CN(C)C)c3ccc(OC(=O)N4CCN(C)CC4)cc3oc2=O)c1F` [Compound 127], with 110%.
Regarding `CNS(=O)(=O)Nc1cccc(Cc2c(CN(C)c3ccccc3Cl)c3ccc(OC(=O)N(C)C)cc3oc2=O)c1F` [Compound 99], where the note is “A549, 2 h, 10 nM”, the activity at 0.01 µM worked out at 98.9%.
`CNS(=O)(=O)Nc1cccc(Cc2c(CNCCN(C)C)c3ccc(OC(=O)N(C)C)cc3oc2=O)c1F` [Compound 58]: the activity at 0.01 µM (A549, 2 h, 10 nM) turned out to be 98.7%.
As for `CNS(=O)(=O)Nc1cccc(Cc2c(CC(=O)Nc3ccn[nH]3)c3ccc(OC(=O)N(C)C)cc3oc2=O)c1F` [Compound 202], under “A549, 2 h, 10 nM”, the activity at 0.01 µM turned out to be 119%.

The values are drawn from patent US20250270180A1, “MEK INHIBITORS AND THERAPEUTIC USES THEREOF” (Immuneering Corporation, priority 2020, published 2025).
